{"source": "patent US11478533B2", "about": "“Semaglutide for use in medicine” (Novo Nordisk A/S, priority 2020, dated 2022)", "key": {"[1]": {"system": "subjects with NASH", "test": "Clinical Trial A: enhanced liver fibrosis (ELF) score", "format": "in vivo, human", "details": "week 72; for Change in enhanced liver fibrosis (ELF) at end of trial compared to baseline relative to placebo, ETD: all randomised subjects, estimated treatment difference vs placebo (ANCOVA)", "text": "In some embodiments the method of the invention reduces enhanced liver fibrosis (ELF). In some embodiments the term “enhanced liver fibrosis” (also referred to as ELF) as used herein refers to a score derived as a log-linear combination based on blood sample levels of hyaluronic acid (HA), amino-terminal propeptide of type III collagen (P3NP), and tissue inhibitor of metalloproteinase 1 (TIMP1) according to Formula (I): ELF=−7.412+0.681×ln(cHA)+0.775×ln(cP3NP)+0.494×ln(cTIMP1) (I) where cHA is the serum concentration of HA in ng/ml, cP3NP is the serum concentration of P3NP in ng/ml, and cTIMP1 is the serum concentration of TIMP1 in ng/ml.\nA 72-week, randomised, double-blind, placebo-controlled, six-armed, parallel group, multicentre, multi-national phase 2 trial comparing once daily (OD) administration of semaglutide in three different doses (0.1 mg, 0.2 mg and 0.4 mg) with placebo in subjects with NASH was carried out. A total of 319 subjects received trial product, 302 subjects completed the trial, and 277 subjects had liver biopsy at trial week 72. Subjects received once daily (a) semaglutide of (i) 0.05 mg for 4 weeks and 0.1 mg for the remaining trial period, (ii) 0.05 mg for 4 weeks, 0.1 mg for 4 weeks, and 0.2 mg for the remaining trial period, (iii) 0.05 mg for 4 weeks, 0.1 mg for 4 weeks, 0.2 mg for 4 weeks, 0.3 mg for 4 weeks, and 0.4 mg for the remaining trial period, or (b) placebo in injection volumes corresponding to (i), (ii) or (iii). Administration was performed via subcutaneous injection using (a) an aqueous solution comprising 1.0 mg/ml semaglutide, 1.42 mg/ml disodium hydrogen phosphate dihydrate, 14.0 mg/ml propylene glycol, 5.50 mg/ml phenol at pH 7.4, or (b) a placebo solution comprising the same ingredients as (a) except no semaglutide. Inclusion criteria for subjects in the trial comprised (i) histologic evidence of NASH based on evaluation of a liver biopsy obtained up to 21 weeks before screening, (ii) a histological NAS >4 with a score of 1 or more in each sub-component of the score, and (iii) liver fibrosis stage 1, 2 or 3 according to the NASH-CRN. Screening was carried out prior to baseline in order to make assessments used to determine subject eligibility. Exclusion criteria for subjects in the trial comprised (i) documented causes of chronic liver disease other than NASH and (ii) no substantial alcohol consumption, defined in the trial as no more than 20 g ethanol per day for women or no more than 30 g ethanol per day for men. Baseline characteristics for all randomised subjects in the trial were as shown in Table A. The term “baseline” as used herein refers to the beginning of the trial prior to administration of semaglutide or placebo. […] The fibrosis stage was determined according to the Kleiner fibrosis classification."}, "[2]": {"system": "subjects with NAFLD and increased liver stiffness", "test": "Clinical Trial B: liver steatosis by MRI-PDFF", "format": "in vivo, human", "details": "0.4 mg OD s.c.", "procedure": "A randomised, double-blind, placebo-controlled, parallel group, multi-centre phase 1 trial was carried out to investigate the effect of 0.4 mg semaglutide once-daily (OD) in 67 subjects with NAFLD and increased liver stiffness. Subjects received once daily either (i) semaglutide of 0.05 mg for 4 weeks, 0.1 mg for 4 weeks, 0.2 mg for 4 weeks, 0.3 mg for 4 weeks, and then 0.4 mg for the remaining trial period, or (ii) placebo in injection volumes corresponding to (i). Administration was performed via subcutaneous injection using (a) an aqueous solution comprising 1.0 mg/ml semaglutide, 1.42 mg/ml disodium hydrogen phosphate dihydrate, 14.0 mg/ml propylene glycol, 5.50 mg/ml phenol at pH 7.4, or (b) a placebo solution comprising the same ingredients as (a) except no semaglutide. Inclusion criteria for subjects in the trial comprised (i) liver steatosis of at least 10% measured by magnetic resonance imaging proton density fat fraction (MRI-PDFF) at screening, (ii) liver stiffness between 2.50 and 4.63 kPa (both inclusive) measured by magnetic resonance elastography at screening, (iii) BMI between 25.0 and 40.0 kg/m^2 (both inclusive) at screening, (iv) liver stiffness >6.50 kPa measured via Fibroscan® (manufactured by Echosens, Paris, France) at screening, and (v) for subjects with type 2 diabetes mellitus only, diagnosis of type 2 diabetes mellitus was at least 180 days prior to screening and with HbA1c of no more than 9.5% at screening. Screening was carried out prior to baseline in order to make assessments used to determine subject eligibility. Exclusion criteria for subjects in the trial comprised (i) documented causes of chronic liver disease other than NAFLD including NASH and (ii) no substantial alcohol consumption, defined in the trial as no more than 20 g ethanol per day for women or no more than 30 g ethanol per day for men. Baseline characteristics for all randomised subjects in the trial were shown in Table B. MRI-PDFF is a determination of the percentage of fat in the entire liver and the method is described in e.g. Caussy et al. Hepatology. 2018 August; 68(2):763-772."}}}
{"substance": "N-epsilon26-[2-(2-{2-[2-(2-{2-[(S)-4-Carboxy-4-(17-carboxyheptadecanoyl-amino)butyrylamino]ethoxy}ethoxy)acetylamino]ethoxy}ethoxy)acetyl] [Aib8, Arg34]GLP-1-(7-37) [Semaglutide]", "values": [{"measurement": "Change in enhanced liver fibrosis (ELF) at end of trial compared to baseline relative to placebo, ETD", "setting": "[1]; 0.1 mg OD s.c.", "result": "−0.35 [−0.57;"}, {"measurement": "Change in enhanced liver fibrosis (ELF) at end of trial compared to baseline relative to placebo, ETD", "setting": "[1]; 0.2 mg OD s.c.", "result": "−0.40 [−0.62;"}, {"measurement": "Change in enhanced liver fibrosis (ELF) at end of trial compared to baseline relative to placebo, ETD", "setting": "[1]; 0.4 mg OD s.c.", "result": "−0.57 [−0.79;"}, {"measurement": "Reduction of ELF compared to placebo (in words)", "setting": "[1]; all tested semaglutide dosages", "result": "reduced ELF significantly more compared to placebo"}, {"measurement": "Reduction of liver steatosis compared to placebo", "setting": "[2]; 24 weeks of trial", "result": 30, "unit": "%"}, {"measurement": "Subjects with at least 30% reduction in liver steatosis", "setting": "[2]; 24 weeks of trial", "result": "about 65%"}, {"measurement": "Reduction of liver steatosis compared to placebo", "setting": "[2]; 48 and 72 weeks of trial", "result": "about 50%"}, {"measurement": "Subjects with at least 30% reduction in liver steatosis", "setting": "[2]; 48 and 72 weeks of trial", "result": "74-77%"}, {"measurement": "Change in liver steatosis by MRI-PDFF compared to baseline, Estimated mean ratio to baseline", "setting": "[2]; trial week 24", "result": 0.64}, {"measurement": "Proportion of subjects with 30% or greater reduction in liver steatosis by MRI-PDFF compared to baseline", "setting": "[2]; trial week 24", "result": "64.7 (p = 0.0006) %"}, {"measurement": "Change in liver steatosis by MRI-PDFF compared to baseline, Estimated mean ratio to baseline", "setting": "[2]; trial week 48", "result": 0.42}, {"measurement": "Proportion of subjects with 30% or greater reduction in liver steatosis by MRI-PDFF compared to baseline", "setting": "[2]; trial week 48", "result": "76.5 (p = 0.0001) %"}, {"measurement": "Change in liver steatosis by MRI-PDFF compared to baseline, Estimated mean ratio to baseline", "setting": "[2]; trial week 72", "result": 0.42}, {"measurement": "Proportion of subjects with 30% or greater reduction in liver steatosis by MRI-PDFF compared to baseline", "setting": "[2]; trial week 72", "result": "73.5 (p = 0.0006) %"}]}
